Experimental findings from PMC11982498 (Redox Biology, 2025) are described below.

Assay [1] addresses T1, Aβ1-42 (Homo sapiens, UniProt P05067).
T1 construct: Aβ1-42 was purchased from Gill Biochemicals Ltd (Shanghai, China); purchased Gill Biochemicals Ltd (Shanghai, China)
The assay can be described thus: Transmission electron microscopy of Aβ1-42 fibrils. The format is biochemical. The following applies: 20 μM compound, 72 h. The procedure: TEM experiment was carried out following a published method without significant modification, and the Aβ1-42 solution (100 μM) was co-incubated with B14 (20 μM) or Curcumin (20 μM) at 37 °C for 72h. The samples were dropped to a carbon-coated grid, stained with 2 % phosphotungstic acid, and then dried at room temperature. The morphology of Aβ1-42 fiber was observed on a JEM-1200EX II transmission electron microscope (Jeol, Japan).
The Aβ1-42 solution (100 μM) was co-incubated with B14 solution (20 μM) or Curcumin (20 μM) at 37 °C for 72h. The samples were dropped to a carbon-coated grid, stained with 2% phosphotungstic acid, and then dried at room temperature. The morphology of Aβ1-42 fiber was observed on a JEM-1200EX II transmission electron microscope (Jeol, Japan).

The subject of assay [2] is BCL-2(G4) (DNA, G4) AGGGGCGGGCGCGGGAGGAAGGGGGCGGGAGCGGGGCTG
Nature of the assay: CD melting, 260 nm. The note with it: K+ 100 mM; Figure S6 legend says Na+ 20 mM; Tris-HCl, pH 7.4; 20 μM B14, 2 μM DNA.

Assay [3] concerns HRAS promoter i-motif. The assay can be described thus: TO displacement assay, HRAS i-motif. It counts as binding. The procedure:
DNA oligonucleotides were diluted to 1 μM with 1 × PBES buffer at pH 5.5, annealed at 95 °C for 10 min, cooled to room temperature, and stored at 4 °C for future use. TO dye (1 μM) was added to the DNA solution followed with incubation for 1 h. The spectra of 100 μL mixture with addition of different equivalent compounds at 25 °C were recorded based on fluorescence emission (λex = 480 nm).
TO displacement ratio (%) = (F0 − FC) / (F0 − FB) * 100.
F0 and FC were the fluorescence intensity of TO at 536 nm with DNA before and after adding compounds, respectively. FB was the fluorescence intensity of TO at 536 nm with buffer only.

Assay [4] concerns the target T1, Aβ1-42. Nature of the assay: Thioflavine T fluorescence spectroscopy assay (time course to 96 h). The format is biochemical. The note with it: 20 μM compound, Aβ1-42 incubated for 96 h. The procedure:
The Aβ1-42 solutions (100 μM) were co-incubated with B14 (20 μM) or Curcumin (20 μM) at 37 °C protected from light for 96 h. 30 μL of Aβ1-42 solution was taken at different time points (0 h, 10 h, 24 h, 48 h, 72 h, 96 h), mixed fully with 400 μL of ThT solution (15 μM), and incubated in the dark for 30 min. The fluorescence signal was recorded by using a Cary Eclipse fluorescence spectrophotometer (Varian, USA) with the following setting: excitation wavelength at 440 nm, emission wavelength at 480 nm, and slit width of 20 nm.
The Aβ1-42 solutions (100 μM) were co-incubated with B14 (20 μM) and Curcumin (20 μM) at 37 °C protected from light for 96 h. 30 μL of Aβ1-42 solutions were taken at different time points (0 h, 10 h, 24 h, 48 h, 72 h, 96 h), mixed fully with 400 μL of ThT solution (15 μM), and incubated in the dark for 30 min. The fluorescence signal was recorded by a Cary Eclipse fluorescence spectrophotometer (Varian, USA) with excitation wavelength at 440 nm, emission wavelength at 480 nm, and slit width of 20 nm.

Assay [5] relates to RB (DNA, i motif) GCCGCCCAAAACCCCCCG
Nature of the assay: thiazole orange displacement. The following applies: K+ 100 mM KCl plus potassium phosphate; BPES buffer, pH 5.5, 25 °C; 1 μM DNA, 1 μM TO; displacement only 1 %.

Assay [6] relates to VEGF gene transcription in SH-SY5Y cells. Nature of the assay: Real-time RT-PCR in SH-SY5Y cells, VEGF. The format is cell-based, human. The procedure:
SH-SY5Y cells were treated with or without B14, and total RNA was subsequently isolated and purified. Reverse transcription was performed using a cDNA synthesis kit. The relative transcription levels of the genes were evaluated through quantitative real-time PCR using the SYBR Green-based method, as described in the Supplementary Date. Details regarding the primer sequences and the raw data can be found in Table S7 and Table S8.
^a -∆∆Ct = -[(Ct value of genes in treated sample - Ct value of genes in control) - (Ct value of β-actin in treated sample - Ct value of β-actin in control)]. ^b F: The relative expression fold.
Experiment 1: SH-SY5Y cells were treated with different concentration of B14. The Ct values of BAX, VEGF, CMYC and BCL-2 were obtained.
Total RNA was extracted from cells and mice liver tissue using RNAiso Plus (Takara, 9109, Japan). Following sample homogenization, chloroform was added, and the solution was allowed to have phase separation into an upper aqueous layer (containing RNA), an interphase, and a lower organic layer (containing DNA and proteins). RNA was precipitated from the aqueous phase using isopropanol, while DNA was precipitated from the aqueous-organic interphase using ethanol. Complementary DNA (cDNA) was synthesized using the One-Step RT-PCR Kit (Takara, Cat#639503, Japan).
Quantitative real-time polymerase chain reaction (qRT-PCR) was performed using the 2× RealStar SYBR Mixture (GenStar, Cat# A301-10, Guangzhou, China) on a LightCycler 480 II real-time PCR system (Roche, USA). Data were analyzed using the 2^−ΔΔCt method. Actin served as the internal control, and relative mRNA levels were normalized accordingly.
(In general: Real-time PCR tracks product formation cycle by cycle.)

The test system of assay [7] is F-BCL-2(G4) (DNA, G4) AGGGGCGGGCGCGGGAGGAAGGGGGCGGGAGCGGGGCTG
Nature of the assay: MST. The following applies: K+ 100 mM; 50 mM Tris-HCl, pH 7.4; highest B14 concentration 50 μM.

Assay [8] deals with bio-HRAS (DNA, i motif) CGCCCGTGCCCTGCGCCCGCAACCCGA
The assay can be described thus: SPR. The following applies: K+ 100 mM; 20 mM MES, pH 5.5, 25 °C.

The subject of assay [9] is BCL-2 (BCL-2 IM) (DNA, i motif) CAGCCCCGCTCCCGCCCCCTTCCTCCCGCGCCCGCCCCT
The assay can be described thus: CD melting, 287 nm. The note with it: K+ 100 mM KCl plus potassium phosphate; BPES buffer, pH 5.5; 20 μM B14 (DNA 1, 2 or 5 μM, prints disagree).

T1 sequence (P05067 672-713 limits assumed): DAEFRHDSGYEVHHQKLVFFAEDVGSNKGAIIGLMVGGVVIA

In general, ΔTm refers to the shift of the melting midpoint relative to a reference. As a reminder, the KD is the free concentration of one partner at which half of the binding sites on the other are occupied at equilibrium, for simple one-to-one binding. A high value points to a looser complex. For `O=C(CCN1CCOCC1)Nc1ccc2c(c1)c(=O)c1cc(NC(=O)CCN3CCOCC3)ccc1n2-c1ccc2occc2c1` [Compound B14], the “ultrastructure of Aβ1-42 fibers (TEM)” value in [1] was “formation of protofibrils or amorphous oligomers was significantly reduced”. The figures for the ΔTm in [2] and in assay [9] were -3.13 °C and 11.26 °C, respectively. Further, the TO displacement ratio in assay [3] was determined as 16%. Also, in assay [4], the “decrease of ThT fluorescence intensity” value stood at 39.58 ± 2.08%. Moreover, in assay [5], the binding entry is “no”. Besides, the results for the “-∆∆Ct, VEGF” value in assay [6] (6.25 μM B14), in [6] (12.5 μM B14) and in [6] (25 μM B14) were -0.01, -0.01 and -0.03, respectively. Also, the results for the “F = 2^-∆∆Ct (relative expression fold), VEGF” value in assay [6] (6.25 μM B14), in assay [6] (12.5 μM B14) and in [6] (25 μM B14) were 1.00, 1.00 and 1.02, respectively. The values for the KD in [7] and in assay [8] were 59.75 µM and greater than 50 µM, respectively.
